Measured values reported in paper PMC6052416, “Selective inhibition of carbonic anhydrase-IX by sulphonamide derivatives induces pH and reactive oxygen species-mediated apoptosis in cervical cancer HeLa cells” (Journal of Enzyme Inhibition and Medicinal Chemistry, 2018).
Where two headings read alike, the source gives them in different places.

Key:
[1] = system: HEK-293 (embryonic kidney epithelial cell); experiment: WST-1 cytotoxicity, HEK-293; assay type: cell-based; conditions: normal cell
Description: (§1) Cancer and normal cell lines were purchased from ATCC and stored in liquid nitrogen. HT-29 (colon adenoma cancer), HeLa (cervix adenoma cancer cell), MDA-MB-231 (breast adenoma cancer cell), HEK-293 (embryonic kidney epithelial cell) and PNT-1A (normal prostate cells) cell lines were incubated in DMEM: F-12 and RPMI-1640, including 10% foetal bovine serum (FBS), 100 µg/mL streptomycin/100 IU/mL penicillin, at 37 °C in an incubator containing 5% CO2, 95% air in a humid atmosphere.
(§2) The cytotoxic effects of the substances were evaluated with WST-1 kits (Roche, Germany) in accordance with the manufacturer’s protocols. The cells were planted in 96-well plates (10^4 cells in each well). After incubation for 24 h, the media were discarded and the substances and 5-Fu as the control drug, at doses of 0, 2.5, 5, 10, 25, 50, 100 and 200 µM, were incubated for 24, 48 and 72 h. WST-1 reactive of 10 µL was added to all wells. Following 4-h incubation, the measurements were taken on a plate reader (Spectramax M5) at wavelengths of 450 and 630 nm. Graphs were then created and the IC50 value of each substance was calculated.

[2] = system: HeLa (cervix adenoma cancer cell); experiment: WST-1 cytotoxicity, HeLa; assay type: cell-based, human
Description: as §1, §2

[3] = target: hCA IX; parameters: method as in PMID 25913118, PMID 26803577; conditions: cited from earlier work
[4] = system: MDA-MB-231 (breast adenoma cancer cell); experiment: WST-1 cytotoxicity, MDA-MB-231; assay type: cell-based, human
Description: as §1, §2

[5] = system: HT-29 (colon adenoma cancer); experiment: WST-1 cytotoxicity, HT-29; assay type: cell-based, human
Description: as §1, §2

[6] = system: PNT-1A (normal prostate cells); experiment: WST-1 cytotoxicity, PNT-1A; assay type: cell-based; conditions: normal cell
Description: as §1, §2

[7] = target: hCA XII; parameters: method as in PMID 25913118, PMID 26803577; conditions: cited from earlier work
[8] = WST-1, 24 h, read-out: IC50 HEK-293 24 h
[9] = WST-1, 72 h, read-out: IC50 HEK-293 72 h
[10] = WST-1, 24 h, mean of three experiments, read-out: IC50 HeLa 24 h
[11] = WST-1, 48 h, read-out: IC50 HeLa 48 h
[12] = WST-1, 48 h, read-out: IC50 MDA-MB-231 48 h
[13] = WST-1, 72 h, read-out: IC50 MDA-MB-231 72 h
[14] = WST-1, 24 h, read-out: IC50 HT-29 24 h
[15] = WST-1, 48 h, read-out: IC50 HT-29 48 h
[16] = WST-1, 72 h, read-out: IC50 HT-29 72 h
[17] = WST-1, 24 h, read-out: IC50 PNT-1A 24 h
[18] = WST-1, 48 h, read-out: IC50 PNT-1A 48 h
[19] = WST-1, 72 h, read-out: IC50 PNT-1A 72 h
[20] = WST-1, 48 h, read-out: IC50 HEK-293 48 h
[21] = WST-1, 72 h, read-out: IC50 HeLa 72 h

SMILES | IC50 [1, 8] | IC50 [1, 9] | IC50 [2, 10] | IC50 [2, 11] | Ki [3] | IC50 [4, 12] | IC50 [4, 13] | IC50 [5, 14] | IC50 [5, 15] | IC50 [5, 16] | IC50 [6, 17] | IC50 [6, 18] | IC50 [6, 19] | IC50 ([4]; WST-1, 24 h, read-out: IC50 MDA-MB-231 24 h) | IC50 [1, 20] | IC50 [2, 21] | Ki [7]
Cc1cccc(C=NCCc2ccc(S(N)(=O)=O)cc2)c1O [Compound 2] | 114 ± 3.44 µM | 75.2 ± 5.6 µM | 27.1 ± 1.3 µM | 49.6 ± 0.8 µM | 295 nM | – | – | – | – | – | – | – | – | – | – | – | –
Cc1cccc(C=Nc2ccc(S(N)(=O)=O)cc2)c1O [Compound 3] | 196 ± 14.3 µM | 37.9 ± 3.6 µM | 36.3 ± 0.2 µM | 29.8 ± 2.3 µM | 465 nM | 80.6 ± 12.4 µM | 96.7 ± 33.4 µM | – | – | – | – | – | – | – | – | – | –
Cc1ccc(C=NCCc2ccc(S(N)(=O)=O)cc2)cc1 [Compound 4] | – | 96.2 ± 12.2 µM | – | – | 123 nM | – | 178 ± 11.2 µM | 33 ± 2.3 µM | 23.7 ± 2.2 µM | 119 ± 23.2 µM | – | – | – | – | – | – | –
O=c1[nH]cc(F)c(=O)[nH]1 [Compound 5-FU, reference compound] | 44.6 ± 7.2 µM | 14.5 ± 3.2 µM | 37.8 ± 4.3 µM | 31.2 ± 2.3 µM | – | 37.9 ± 12.3 µM | 21 ± 4.3 µM | 47.3 ± 1.2 µM | 23.4 ± 2.1 µM | 19.3 ± 1.2 µM | 23.1 ± 4.55 µM | 21.2 ± 2.2 µM | 17.5 ± 7.6 µM | 42.6 ± 2.56 µM | 19.8 ± 2.3 µM | 14.7 ± 0.6 µM | –
Cc1ccc(C=Nc2ccc(S(N)(=O)=O)cc2)cc1 [Compound 5] | – | 170 ± 11.2 µM | – | 182 ± 12.2 µM | 23.7 nM | 74.7 ± 12.4 µM | – | – | – | – | – | – | – | – | – | – | 9.9 nM
COc1ccc(C=Nc2ccc(S(N)(=O)=O)cc2)cc1 [Compound 6] | – | 100 ± 22.2 µM | – | 198 ± 14.3 µM | 883 nM | – | – | – | – | 187 ± 23.4 µM | 154 ± 16.5 µM | 120 ± 11.2 µM | 76.4 ± 13.3 µM | – | – | 123 ± 11.1 µM | 11.2 nM
COc1ccc(C=NCCc2ccc(S(N)(=O)=O)cc2)cc1 [Compound 7] | 120 ± 13.8 µM | 85.4 ± 11.2 µM | – | – | 231 nM | 123 ± 12.3 µM | 98.2 ± 11.2 µM | – | – | – | – | 190 ± 8.6 µM | 130 ± 32.2 µM | – | 98.3 ± 11.2 µM | – | –
